These results are taken from patent US20100196355A1, “Immunophilin Ligands and Methods for Modulating Immunophilin and Calcium Channel Activity” (Wyeth, priority 2007, published 2010).

Where only a bound is given, the exact number is not on record here.

The test system of series [1] is cortical neurons. Nature of the series: Neurite outgrowth in cortical neurons. The format is cell-based, rat. The conditions noted are these: siRNA-transfected rat cortical neurons, 24 h; control lamin A/C siRNA. How it is done:
Cortical neurons were fixed using 2% paraformaldehyde for 5 min followed by 4% paraformaldehyde for 5 min. Cells were incubated in blocking solution (0.2% Triton-X+1.5% normal goat serum in PBS) followed by primary (anti-neuronal class III β-tubulin (TUJ1) (Covance Innovative Antibodies, Berkeley, Calif.) and secondary antibody (Alexa Fluor 488 goat anti-mouse) (Molecular Probes, Carlsbad, Calif.). Each step was performed at room temperature for 1 hr. Total neurite outgrowth for each condition was analyzed using the Neuronal Profiling Bioapplication on an ArrayScan HCS Reader (Cellomics, Pittsburgh, Pa.).
(§1) Briefly, cortical neuron cultures were prepared from embryonic day 15 (E15) rat embryos (Sprague-Dawley, Charles River Laboratories, Wilmington, Mass.). The embryos were collected, their brains were removed, and the cortices were dissected out in ice-cold phosphate-buffered saline (PBS) without Ca^2+ and Mg^2+. Dissected pieces of cortical tissue were pooled together and transferred to an enzymatic dissociation media containing 20 IU/ml papain in Earle's balanced salt solution (Worthington Biochemical, Freehold, N.J.) and incubated for 30 min at 37° C. After enzymatic dissociation, the papain solution was aspirated and the tissue mechanically triturated with a fire-polished Pasteur pipette in complete media [Neurobasal Medium with B-27 supplement (Gibco, Grand Island, N.Y.), 100 IU/ml penicillin, 100 μg/ml streptomycin, 3.3 μg/ml aphidicolin, 0.5 mM glutamate] containing 2,000 IU/ml DNase and 10-mg/ml ovomucoid protease inhibitor.

Series [2] concerns cultured rat cortical neurons. Nature of the series: Neuronal survival assay (neurofilament ELISA). It counts as cell-based. The conditions noted are these: siRNA-transfected rat cortical neurons; neurofilament ELISA. The method, then: Cultures were fixed for 30 min with 4% paraformaldehyde at 37° C. Nonspecific binding was blocked by incubating with PBS containing 0.3% Triton X-100 and 5% fetal bovine serum (FBS) for 45 min. Cultures were then incubated overnight at 4° C. with an anti-neurofilament (200 kD) monoclonal antibody (1:1000, clone RT-97, Chemicon, Temecula, Calif.). After washing, a peroxidase-conjugated secondary antibody (1:1000, Vector Labs, Burlingame, Calif.) was applied for 2 h. After three washes, the peroxidase substrate K-BlueMax (Neogen, Lexington, Ky.; Young et al., 1999) was added to the cultures and incubated for 10 min on an orbital shaker. The peroxidase substrate is highly soluble in the K-BlueMax solution. Optical density is then readily measured using a Molecular Devices Spectramax Plus colorimetric plate reader at 650
as §1
In general terms: In an ELISA, binding on a coated surface is turned into a signal by an enzyme label.

Series [3] deals with T1, His6-tagged FKBP52 (Homo sapiens, UniProt Q02790).
T1 construct: made in house
T1 sequence (Q02790 1-459): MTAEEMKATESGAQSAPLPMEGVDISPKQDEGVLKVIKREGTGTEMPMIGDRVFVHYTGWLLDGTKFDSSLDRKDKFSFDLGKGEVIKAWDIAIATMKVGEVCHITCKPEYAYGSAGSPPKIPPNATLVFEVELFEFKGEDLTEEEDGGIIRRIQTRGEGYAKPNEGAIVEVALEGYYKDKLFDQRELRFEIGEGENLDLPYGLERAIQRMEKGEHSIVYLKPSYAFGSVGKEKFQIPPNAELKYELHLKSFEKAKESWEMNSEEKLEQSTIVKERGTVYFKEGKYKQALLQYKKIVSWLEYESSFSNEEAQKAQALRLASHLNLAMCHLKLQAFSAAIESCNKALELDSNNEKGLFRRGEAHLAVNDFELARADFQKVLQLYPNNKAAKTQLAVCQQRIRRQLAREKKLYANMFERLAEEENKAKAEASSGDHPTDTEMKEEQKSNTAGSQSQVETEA
Nature of the series: [3H]-FK506 binding on Ni-chelated FLASH plate. To be noted: read-out: FKBP 52 (Kd). How it is done:
(§2) Reactions were carried out in triplicate at 25° C. for 30 min. Kd were calculated using methods described by Carreras (Anal. Biochem. 298, 57-61 (2001)).

In series [4] the target is His6-tagged FKBP12 (Homo sapiens, UniProt P62942). Briefly: [3H]-FK506 binding on Ni-chelated FLASH plate. To be noted: read-out: FKBP 12 (Kd). How it is done: as §2
Series [5] relates to Ca2+ channel in F-11 cells. Nature of the series: Whole-cell patch clamp recording of Ca2+ currents in F-11 cells. To be noted: 5 μM in the bath for 2 hrs. It counts as cell-based, rat and mouse hybrid. How it is done: The whole-cell configuration of the patch-clamp technique was used to record calcium currents from the cells at room temperature using an EPC-9 amplifier (HEKA, Instrutech Corp.) with the acquisition and analysis program Pulse-PulseFit from HEKA (Lambrecht, Germany). Electrodes were fabricated using a P-87 puller (Sutter Instrument). […] The standard bath recording solution is Ca^2+ and Mg^2+ free HBSS (pH 7.4) containing 10 mM HEPES, 10 mM dextrose, and 4 mM BaCl2. Currents were filtered at 3 kHz, and the inward Ca^2+ currents were recorded from cells held at −90 mV with 10 mV depolarizing steps from −80 mV to 60 mV for 50 ms.
For orientation: The patch-clamp technique gives a direct electrical read-out from membranes.

Series [6] addresses T2, His6-CACNB1:TGG548TAA (Homo sapiens, UniProt Q02641).
T2 construct: His6 (N); made in house
Briefly: Size exclusion binding of [14C]-1 to purified recombinant protein. The conditions noted are these: 10 μM. An excerpt: (§3) Using Gateway cloning methods developed by Invitrogen (Carlsbad, Calif.), cacnb1/CACNB 1, cacnb4/CACNB4fkbp3/FKBP25, fkbp4/FKBP52, ppid, ppif and fkbp8/FKBP38 genes were cloned into the pDEST17 (N-His6 tag) vector. The His6-CACNB1: TGG548TAA were generated from pDEST17-CACNB1 using QuikChange site-directed mutagenesis kit (Stratagene, LaJolla, Calif.). The His6 tagged protein was purified on a Ni-NTA column (Qiagen, Valencia, Calif.).
On the technique in general: SEC sorts molecules by how far they enter the pores of the column.

The target in series [7] is T3, FKBP38/Ca2+/CaM (Homo sapiens, UniProt Q14318).
T3 construct: His6 (N); made in house
The description is as above. To be noted: 10 μM; 2 mM Ca2+ and 5 μM CaM.
Text: as §3

In series [8] the target is T4, CACNB4 (Homo sapiens, UniProt O00305).
T4 construct: His6 (N); made in house
The series is described as above. The conditions noted are these: 10 μM.
Text: as §3

Series [9] concerns the target T5, PPIF (Homo sapiens, UniProt P30405).
T5 construct: His6 (N); made in house
The description is as above. To be noted: 10 μM.
Text: as §3

Series [10] addresses T6, PPID (Homo sapiens, UniProt Q08752).
T6 construct: His6 (N); made in house
The series is described as above. To be noted: 10 μM.
Text: as §3

For series [11], the system named is FKBPs. Described as above. Further details: species or system human. The conditions noted are these: 10 μM.
Text: as §3

The test system of series [12] is Human CD4+ T cells. Nature of the series: Immunosuppression assay: IL-2 stimulated CD4+ T-cell proliferation. The format is cell-based. The conditions noted are these: Homo sapiens, CD4+ T cell. How it is done: Human CD4^+ T cells were purified by negative selection from peripheral blood lymphocytes using RosetteSep as per manufacture's instructions (StemCell Technologies, Inc. Vancouver, British Columbia). Tosyl-activated magnetic microspheres (Dynal, Great Neck, N.Y.) were coated with anti-CD3 Ab (1 μg/10^7 microspheres), and anti-CD28Ab ([…]) as described in Blair et al. J. Immunol., 160:12, 1998. […] Protein-coated microspheres were added to purified CD4+T cells (2×10^6cells/mL, ratio 1 bead: 1 cell) and activated for 72 hours in RPMI, 10% fetal calf serum, 2 mM glutamine media. Cells were harvested, washed, and cultured overnight in fresh media and re-stimulated with IL-2 as described in Bennett et al., J. Immunol. 170:711, 2003. […] Seventy-two hours after culture re-stimulation, plates were pulsed with 1 μCi/well tritiated thymidine and incubated for a 6-16 hour period.

T5 sequence (P30405 30-207): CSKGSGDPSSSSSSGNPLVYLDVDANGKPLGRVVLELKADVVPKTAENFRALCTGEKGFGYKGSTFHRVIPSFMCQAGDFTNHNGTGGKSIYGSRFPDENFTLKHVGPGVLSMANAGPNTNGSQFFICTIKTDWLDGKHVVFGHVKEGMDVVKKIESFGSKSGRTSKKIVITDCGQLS
T2 sequence (Q02641 1-547 limits assumed): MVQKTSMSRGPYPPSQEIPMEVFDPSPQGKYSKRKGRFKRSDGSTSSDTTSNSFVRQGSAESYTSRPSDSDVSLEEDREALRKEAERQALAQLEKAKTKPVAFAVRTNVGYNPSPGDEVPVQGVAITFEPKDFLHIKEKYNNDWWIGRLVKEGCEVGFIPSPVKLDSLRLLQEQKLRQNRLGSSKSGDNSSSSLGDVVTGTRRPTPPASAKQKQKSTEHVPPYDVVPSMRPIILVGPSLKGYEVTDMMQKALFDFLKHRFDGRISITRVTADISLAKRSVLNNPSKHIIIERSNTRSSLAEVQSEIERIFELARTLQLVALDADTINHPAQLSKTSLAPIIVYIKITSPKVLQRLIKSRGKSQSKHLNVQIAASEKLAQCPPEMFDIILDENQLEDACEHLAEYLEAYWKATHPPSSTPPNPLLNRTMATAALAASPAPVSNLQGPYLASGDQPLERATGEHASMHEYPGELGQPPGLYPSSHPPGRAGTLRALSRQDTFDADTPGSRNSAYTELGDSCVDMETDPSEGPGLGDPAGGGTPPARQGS
Sequence of His6-tagged FKBP12 (P62942 whole entry): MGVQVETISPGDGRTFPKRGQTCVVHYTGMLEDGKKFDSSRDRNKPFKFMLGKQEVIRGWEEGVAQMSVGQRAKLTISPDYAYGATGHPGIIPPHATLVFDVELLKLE
T3 sequence (Q14318 whole entry): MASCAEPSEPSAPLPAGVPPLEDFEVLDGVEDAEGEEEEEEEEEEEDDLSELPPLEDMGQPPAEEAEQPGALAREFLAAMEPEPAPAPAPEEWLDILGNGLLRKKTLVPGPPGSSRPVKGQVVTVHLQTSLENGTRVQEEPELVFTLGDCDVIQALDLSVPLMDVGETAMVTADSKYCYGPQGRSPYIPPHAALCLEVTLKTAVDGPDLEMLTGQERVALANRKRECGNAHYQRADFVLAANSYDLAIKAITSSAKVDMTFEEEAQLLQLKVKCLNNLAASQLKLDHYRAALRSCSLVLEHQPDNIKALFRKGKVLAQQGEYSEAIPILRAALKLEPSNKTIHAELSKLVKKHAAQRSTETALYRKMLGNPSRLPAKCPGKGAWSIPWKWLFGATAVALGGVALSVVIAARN
T6 sequence (Q08752 whole entry): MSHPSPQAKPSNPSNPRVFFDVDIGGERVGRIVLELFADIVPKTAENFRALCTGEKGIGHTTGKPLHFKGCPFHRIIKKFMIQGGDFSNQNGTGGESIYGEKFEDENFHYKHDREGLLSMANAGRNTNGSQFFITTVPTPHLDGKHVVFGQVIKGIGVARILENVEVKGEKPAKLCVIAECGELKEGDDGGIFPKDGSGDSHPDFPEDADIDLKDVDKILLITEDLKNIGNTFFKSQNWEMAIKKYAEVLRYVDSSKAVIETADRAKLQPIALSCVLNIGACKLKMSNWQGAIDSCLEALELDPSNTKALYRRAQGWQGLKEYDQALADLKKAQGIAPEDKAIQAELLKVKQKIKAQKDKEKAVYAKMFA

As to “FKBP52 siRNA: siRNA, sense CCUAGCUAUGCUUUUGGCATT (SEQ ID NO:17), antisense UGCCAAAGCAUAGCUAGGTT (SEQ ID NO:18) (chemistry not given here)”, the “total neurite outgrowth compared to control” value in series [1] is 125±12 % of control. Further, the “percent neuronal survival compared to control” value in series [2] was 112±2 % of control.

On to `CCC(C)(C)C(=O)C(=O)N1CCC[C@H]1C(=O)OCCCc1cccnc1` [GPI-1046, reference compound], for which the results for the Kd in series [3] and in [4] were greater than 12 nM and greater than 110 nM, respectively.

For the compound `C=CC[C@@H]1/C=C(\C)C[C@H](C)C[C@H](OC)[C@H]2O[C@@](O)(C(=O)C(=O)N3CCCC[C@H]3C(=O)O[C@H](/C(C)=C/[C@@H]3CC[C@@H](O)[C@H](OC)C3)[C@H](C)[C@@H](O)CC1=O)[C@H](C)C[C@@H]2OC` [FK506, reference compound], in series [5], the “Ca2+ current density” value is 2.9+/−0.1 pA/pF and the “decrease of Ca2+ current density vs vehicle” value was determined as 55%.

Take “9,27-dihydroxy-3-{2-[4-hydroxy-3-methoxycyclohexyl ]-1-methylethyl}-10,21-dimethoxy-6,8,12,14,20,26-hexamethyl-37-phenyl-4,9,10,12,13,14,15,18,21,22,23,24,25,26,27,32,33,34,34a-nonadecahydro-3H-23,27-epoxy-18,15-(epoxyimino)pyrido[2,1-c][1,4]oxazacyclohentriacontine-1,5,11,28,29(6H, 31H)-pentone [Rapamycin analogue I]”: the “binding of [14C]-Compound 1 to mutant His6-CACNB1:TGG548TAA” value in series [6] is recorded as “weakly”. Moreover, the “binding of [14C]-1 to FKBP38/Ca2+/CaM” value in series [7] was “negligibly”. In addition, in [8], the “binding of [14C]-Compound 1 to CACNB4” value is listed as “negligibly”. Also, in series [9], the “binding of [14C]-1 to PPIF” value is listed as “negligibly”. Moreover, the “binding of [14C]-1 to PPID” value in [10] is “weakly”. Moreover, the “binding of [14C]-1 to FKBPs” value in series [11] is recorded as “well”.

For the compound “CACNB1 siRNA: siRNA, sense GGAGAAGUACAAUAAUGACTT (SEQ ID NO:15), antisense GUCAUUAUUGUACUUCUCCTT (SEQ ID NO:16) (chemistry not given here)”, the “total neurite outgrowth compared to control” value in series [1] is “essentially unchanged”. Further, the “percent neuronal survival compared to control” value in series [2] is given as 80±3 % of control.

Regarding `CO[C@H]1C[C@@H]2CC[C@@H](C)[C@@](O)(O2)C(=O)C(=O)N2CCCC[C@H]2C(=O)O[C@H]([C@H](C)C[C@@H]2CC[C@@H](O)[C@H](OC)C2)CC(=O)[C@H](C)/C=C(\C)[C@@H](O)[C@@H](OC)C(=O)[C@H](C)C[C@H](C)/C=C/C=C/C=C/1C` [Rapamycin, reference compound], in series [3], the Kd is 1.4 ± 0.1 nM. Moreover, the IC50 in series [12] was 5 nM.

In general, Kd refers to the concentration at which binding is half-saturated. As usually defined, the IC50 is the midpoint of a concentration-inhibition curve. A low value points to higher potency.
